Assays:
[1] = system: phenyl-p-benzoquinone induced writhing; assay: mouse antiphenylquinone writhing test (prevention of phenyl-p-benzoquinone induced writhing; oral analgesic activity); type: in vivo, mouse (male CF1); settings: 10 min, preliminary experiment, 95% confidence limits 0.80-1.69 (sodium zomepirac), 166-281 (acetaminophen)
[2] = system: phenyl-p-benzoquinone induced writhing; assay: as above; type: in vivo, mouse (male CF1)
Method: Male CF1 mice obtained from Charles River Breeding Laboratories, fasted for 16-22 hours, and weighing 18-22 g at the time of testing are used throughout. All mice are dosed orally with acetaminophen and/or zomepirac (calculated as the sodium salt) dissolved completely in distilled water containing as vehicle 2% by volume of Tween 80®, a pharmacological dispersant manufactured by Fisher Scientific Company and containing 100% polysorbate 80. A dosing volume of 20 ml/kg is used. All doses are coded and the test is performed under a code not known to the observer.
A standard procedure for detecting and comparing the analgesic activity of different classes of analgesia drugs for which there is a good correlation with human efficacy is the prevention of phenyl-p-benzoquinone induced writhing in mice (H. Blumberg et al.; Proc. Soc. Exp. Biol. Med. 118, 763-766, 1965).
Mice, intubated with various doses of sodium zomepirac, acetaminophen, combined doses of sodium zomepirac and acetaminophen, or vehicle, are injected intraperitoneally with a challenge dose of phenyl-p-benzoquinone.The phenyl-p-benzoquinone is prepared as a 0.1 mg/ml solution in 5% by volume of ethanol in water; the writhing dose is 1.25 mg/kg injected at the rate of 0.25 ml/20 g. For scoring purposes a "writhe" is indicated by whole body stretching or contraction of the abdomen: mice are observed 10 minutes for the presence or absence of writhing beginning 5 minutes after receiving the phenyl-p-benzoquinone dose. Each mouse is used only once, then discarded.
In order to study the interaction between zomepirac and acetaminophen, precise dosage ratios of sodium zomepirac and acetaminophen are selected. Four to five coded doses of each selected combination are studied for analgesic effectiveness at 10 minutes using an experimental design which permits complete randomization of the separate dosage forms tested. Altogether 25 separate dosage forms are used and each form is represented in each experimental session. The experiments are continued by running experimental sessions with an equal number of mice being tested for each dosage group until the total number, N, of mice tested per group is 20.
In the drawing, the diagonal line joining the ED50 values of the two drugs given separately represents simple additivity of drug effects. The dashed lines on each side of the diagonal line give the 95% confidence limits for this line of additivity. […] The 3 diagonal lines radiating from the origin represent the dose ratios of sodium zomepirac to acetaminophen used in mice receiving the combined drug dosages.

| SMILES | ED50 [1] | ED50 at 10 Min. (95% Confidence limits), Sodium Zomepirac (alone or as component of the combination) ([2]; 10 min, N = 20 mice/dose, 95% limits on following lines: alone 1.09-2.12, 1:62.1 0.367-0.649, 1:186 0.204-0.365, 1:559 0.114-0.195) | % MICE BLOCKED ([2]; sodium zomepirac 0.29 + acetaminophen 0 mg/kg) | % MICE BLOCKED ([2]; sodium zomepirac 0.58 + acetaminophen 0 mg/kg) | % MICE BLOCKED ([2]; sodium zomepirac 1.16 + acetaminophen 0 mg/kg) | % MICE BLOCKED ([2]; sodium zomepirac 2.32 + acetaminophen 0 mg/kg) | % MICE BLOCKED ([2]; sodium zomepirac 4.64 + acetaminophen 0 mg/kg) | ED50 at 10 Min. (95% Confidence limits), Acetaminophen (alone or as component of the combination) ([2]; 10 min, N = 20 mice/dose, 95% limits on following lines: alone 162-309, 1:62.1 22.6-40.6, 1:186 37.7-68.5, 1:559 62.6-111) | % MICE BLOCKED ([2]; sodium zomepirac 0 + acetaminophen 54 mg/kg) | % MICE BLOCKED ([2]; sodium zomepirac 0 + acetaminophen 108 mg/kg) | % MICE BLOCKED ([2]; sodium zomepirac 0 + acetaminophen 216 mg/kg) | % MICE BLOCKED ([2]; sodium zomepirac 0 + acetaminophen 432 mg/kg) |
| --- | --- | --- | --- | --- | --- | --- | --- | --- | --- | --- | --- | --- |
| Cc1cc(CC(=O)O)n(C)c1C(=O)c1ccc(Cl)cc1 [Sodium Zomepirac] | 1.16 mg/kg | 1.52 mg/kg | 5% | 20% | 35% | 60% | 95% |  |  |  |  |  |
| CC(=O)Nc1ccc(O)cc1 [Acetaminophen, N-(4-hydroxyphenyl)acetamide] | 216 mg/kg |  |  |  |  |  |  | 224 mg/kg | 10% | 30% | 45% | 75% |

Reference: US4260629A, “Treating pain with acetaminophen and 1,4-dimethyl-5-p-chlorobenzoyl-pyrrole-2-acetic acid” (E. I. Du Pont de Nemours and Company, priority 1979, dated 1981)
